Results on eight molecules are retold here after BindingDB's records for doi:10.1016/j.chembiol.2010.07.018 (University of Dundee, 2010).

As usually defined, the IC50 is the midpoint of a concentration-inhibition curve. A low value points to inhibition by little substance.

Each structure is given as a SMILES string. Starred links: 1 amine or outer side, 2 acyl side, 3 side chain; linkers in the order of their positions; H or OH if unused. Non-standard residues stand in square brackets, D forms with d. Residues, ends and D or L forms follow the SMILES beside them. Groups on a side chain read outwards from the residue. βAsp = O=C(O)[C@H](CC(=O)[*:2])N[*:1]; NMeF = CN[C@@H](Cc1ccccc1)C(=O)O; CO = O=C([*:1])[*:2]

The target of this test is T1, Endochitinase A1 (Aspergillus fumigatus, UniProt Q873Y0).
T1 sequence (Q873Y0 whole entry): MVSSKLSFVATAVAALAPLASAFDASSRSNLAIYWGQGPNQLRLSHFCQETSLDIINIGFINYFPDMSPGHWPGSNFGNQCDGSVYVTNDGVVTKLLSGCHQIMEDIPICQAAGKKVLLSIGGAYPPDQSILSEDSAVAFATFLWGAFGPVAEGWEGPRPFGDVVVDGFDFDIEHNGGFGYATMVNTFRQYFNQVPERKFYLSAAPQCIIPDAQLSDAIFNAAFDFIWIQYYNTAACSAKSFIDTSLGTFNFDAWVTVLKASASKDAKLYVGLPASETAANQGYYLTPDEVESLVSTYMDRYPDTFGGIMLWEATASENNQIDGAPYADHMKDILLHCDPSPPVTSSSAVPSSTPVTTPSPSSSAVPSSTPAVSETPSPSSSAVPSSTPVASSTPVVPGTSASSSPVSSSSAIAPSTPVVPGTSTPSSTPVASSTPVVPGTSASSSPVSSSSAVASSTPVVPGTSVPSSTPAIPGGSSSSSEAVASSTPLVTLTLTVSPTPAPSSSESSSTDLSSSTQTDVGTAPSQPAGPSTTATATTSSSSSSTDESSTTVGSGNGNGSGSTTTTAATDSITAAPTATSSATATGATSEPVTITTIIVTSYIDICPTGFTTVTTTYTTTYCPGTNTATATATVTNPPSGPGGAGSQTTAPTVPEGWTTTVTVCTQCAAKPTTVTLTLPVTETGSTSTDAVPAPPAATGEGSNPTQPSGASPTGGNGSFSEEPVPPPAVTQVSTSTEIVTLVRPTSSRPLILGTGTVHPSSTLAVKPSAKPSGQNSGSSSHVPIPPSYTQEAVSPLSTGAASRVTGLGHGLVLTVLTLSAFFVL
As to the kind of experiment: Enzyme Inhibition Assay. As to conditions: pH 5.5; 37 °C.
On to `CNC(=O)NC(=N)NC1CCCCC1` [Argifin-Derived Fragments, 5], for which it took 42 µM to reach half-maximal inhibition (IC50). That is a double-digit micromolar value.

In turn, `CCN=C(N)NC(=O)NC` [Argifin-Derived Fragments, 2] displayed an IC50 of 310 µM.

The molecule `[H]/N=C(\NC)NC(=O)NC` [Argifin-Derived Fragments, 1] yielded an IC50 of 79 µM.

The molecule `CNC(=O)NC(N)=NCc1ccccc1` [Argifin-Derived Fragments, 7] registered an IC50 of 299 µM.

With `CNC(=O)NC(N)=Nc1ccccc1` [Argifin-Derived Fragments, 6], the midpoint of inhibition, the IC50, lay at 112 µM.

`CCCN=C(N)NC(=O)NC` [Argifin-Derived Fragments, 3] gave an IC50 of 62 µM.

Turning to `CNC(=O)NC(=N)NCCC[C@@H]1NC(=O)[C@@H](C)NC(=O)C[C@@H](C(=O)O)NC(=O)C[C@@H](C(=O)O)NC(=O)[C@H](Cc2ccccc2)N(C)C1=O` [(2R,5S,8S,11S,15S)-8-benzyl-2,7-dimethyl-5-[3-({[(methylcarbamoyl)amino]methanimidoyl}amino)propyl]-3,6,9,13,17-pentaoxo-1,4,7,10,14-pentaazacycloheptadecane-11,15-dicarboxylic acid] (cyclo([NMeF][βAsp][βAsp][dA]R([CO-NHMe]))), the half-inhibitory concentration (IC50) is greater than 3800 µM.

Molecule `CCCCNC(=N)NC(=O)NC` [Argifin-Derived Fragments, 4] returned a half-maximal inhibitory concentration (IC50) of 38 µM.
